{
  "source": "patent US8022043B2",
  "about": "“Ceramide derivatives as modulators of immunity and autoimmunity” (Albert Einstein College of Medicine of Yeshiva University, priority 2004, dated 2011)",
  "key": {"NOD mice": {"system": "NOD mice", "assay": "Prevention of type 1 diabetes in NOD mice", "format": "in vivo", "conditions": "i.p. once per week, 200 micrograms/kg; comparator DB01-1 (indicated as KRN7000)", "protocol": "Cohorts of 6-8 female NOD mice were treated with placebo (vehicle) or DB01-1 (indicated as KRN7000), DB03-4 or DB03-5 injections once weekly beginning at 4-5 weeks of age. Treatment was discontinued after 5 injections (DB03-4) or 7 injections (DB03-5). Top graphs show incidence of glycosuria, and bottom graphs show survival in each cohort.\nGiven the widely held belief that selective augmentation of IL-4 production can be protective or therapeutic in the setting of many autoimmune diseases, we have initiated studies to examine the efficacy of compounds such as DB03-4 and DB03-5 in diabetes prone NOD mice. […] The results reported in FIG. 10 were obtained by treating three groups, each consisting of 9-12 female NOD mice, starting from age 5 weeks with a ceramide-like glycolipid. The indicated ceramide-like glycolipids (DB03-4, DB03-5, or KRN7000) were injected i.p. once per week in a dose of 200 micrograms/kg. Treatment was discontinued at 11 weeks of age, and the mice were monitored weekly for glucosuria (top) and death (bottom).\nFor experiments involving in vivo treatment of mice with the ceramide-like glycolipids, the ceramide-like glycolipids were administered by i.p. or i.v. injection in 0.2 ml PBS+0.025% Tween-20, or in vehicle alone. A typical dose is about 4-5 nmoles per animal per injection. […]"}, "human NKT cell clones": {"system": "human NKT cell clones", "assay": "Human in vitro NKT cell assay system", "format": "cell-based", "conditions": "proliferative responses and cytokine secretion", "source_text": "For example, DB03-4 and DB03-5 are active in stimulation of human NKT cell clones in vitro, and elicits proliferative responses and cytokine secretion when evaluated using culture systems previously established in the literature (See, e.g., Spada F M, Sugita M, Watts G F M, Koezuka Y, and Porcelli S A. Low expression but potent antigen presenting function of CD1d on monocyte lineage cells, Eur. J. Immunol., 30:3468-3477 (2000), and Spada F M, Koezuka Y, Porcelli S A, CD1d-restricted recognition of synthetic glycolipid antigens by human NK T cells. J Exp Med; 188:1529-1534 (1998), see also, Lee P T et al., J Clin Invest., 2002 September; 110(6):793-800. […] Acad. Sci. (USA), 102:3383-8 (2005))."}, "NK T cells": {"system": "NK T cells", "assay": "NK T cell activation screens (Example, FIG. 5 and Table 1)", "format": "cell-based", "conditions": "see Example", "source_text": "Using these methods, we produced more than 60 novel amino substituted analogues of KRN7000. These were screened in a functional assay that assessed the ability of the compounds to activate NK T cell hybridomas in the presence of various types of cells expressing CD1d, or in the presence of recombinant CD1d proteins bound to the tissue culture plate surface (FIG. 5)."}},
  "data": [
    {"smiles": "CCCCC/C=C\\C/C=C\\CCCCCCCCCC(=O)N[C@@H](COC1OC(CO)C(O)C(O)C1O)[C@H](O)[C@H](O)CCCCCCCCCCCCCC", "note": "(stereo partly drawn) [DB03-4]", "values": [
      {"measurement": "prevention of diabetes in NOD mice compared with KRN7000", "setting": "NOD mice", "value": "superior to KRN7000"},
      {"measurement": "stimulation of human NKT cell clones", "setting": "human NKT cell clones", "value": "active"},
      {"measurement": "effectiveness of compound", "setting": "NK T cells", "value": "Particularly effective"}
    ]}
  ]
}
